Experimental data from patent publication US10017497B2, “Pyrrolidine GPR40 modulators for the treatment of diseases such as diabetes” (BRISTOL-MYERS SQUIBB COMPANY, priority 2014, dated 2018).

Assays:
hGPR40 [1] = biological target: T1, hGPR40 (Homo sapiens, UniProt O14842); test: GPR40 IP-One HTRF assay in HEK293/GPR40 inducible cell lines (hGPR40 IP1 EC50); assay type: cell-based; set-up: expressed in transfected cells; conditions: HEK293 cells with tetracycline-inducible human GPR40, IP-One HTRF
Protocol: GPR40 IP-One HTRF Assays in HEK293/GPR40 Inducible Cell Lines
Human, mouse and rat GPR40-mediated intracellular IP-One HTRF assays were established using human embryonic kidney HEK293 cells stably transfected with a tetracycline-inducible human, mouse or rat GPR40 receptor. Cells were routinely cultured in growth medium containing DMEM (Gibco Cat. #12430-047), 10% qualified FBS (Sigma, Cat. #F2442), 200 μg/mL hygromycin (Invitrogen, Cat. #16087-010) and 1.5 μg/mL blasticidin (Invitrogen, Cat. #R210-01). About 12-15 million cells were passed into a T175 tissue culture flask (BD Falcon 353112) with growth medium and incubated for 16-18 hours (overnight) at 37° C. with 5% CO2. The next day, assay medium was exchanged with growth medium containing 1000 ng/mL of tetracycline (Fluka Analytical, Cat. #87128) to induce GPR40 expression for 18-24 hours at 37° C. incubator with 5% CO2. After induction, the cells were washed with PBS (Gibco, Cat. #14190-036) and detached with Cell Stripper (Cellgro, Cat. #25-056-CL). 10-20 mL growth medium were added to the flask and cells were collected in 50 mL tubes (Falcon, Cat. #352098) and spun at 1000 RPM for 5 minutes. Culture medium was aspirated and the cells were resuspended in 10 mL of 1× IP-One Stimulation Buffer from the Cisbio IP-One kit (Cisbio, Cat. #62IPAPEJ). The cells were diluted to 1.4×10^6 cells/mL in Stimulation Buffer.
Test compounds were 3-fold, 11-point serially diluted in DMSO in a REMP assay plate (Matrix Cat. #4307) by Biocel (Agilent). The compounds were transferred into an Echo plate (Labcyte, Cat. #LP-0200) and 20 nL of diluted compounds were transferred to an assay plate (proxi-plate from Perkin Elmer, Cat. #6008289) by Echo acoustic nano dispenser (Labcyte, model ECHO550). 14 μL of the diluted cells were then added to the assay plate by Thermo (SN 836 330) Combi Drop and incubated at room temperature for 45 minutes. Then 3 μL of IP1 coupled to dye D2 from the Cisbio IP-One kit were added to the assay plate followed by 3 μL of Lumi4-Tb cryptate K from the kit. The plate was further incubated at room for 1 hour before reading on the Envision (Perkin Elmer Mode12101) with an HTRF protocol. Activation data for the test compound over a range of concentrations was plotted as percentage activation of the test compound (100%=maximum response). After correcting for background [(sample read-mean of low control)/(mean of high control-mean of low control)](low control is DMSO without any compound), EC50 values were determined. […] The maximal Y value observed (% Ymax) was calculated relative to a BMS standard reference compound at a final concentration of 0.625 μM.

hGPR40 [2] = biological target: T1, hGPR40; test: FDSS-based intracellular calcium assay (hGPR40 EC50); assay type: cell-based; set-up: 3xFLAG; expressed in transfected cells; conditions: cells expressing GPR40, intracellular Ca2+ response, FDSS reader
Protocol: FDSS-Based Intracellular Calcium Assay
Cell lines expressing GPR40 are generated using the pDEST-3×FLAG gene expression system and are cultured in culture medium comprising the following components: F12 (Gibco #11765), 10% lipid deprived fetal bovine serum, 250 μg/mL zeocin and 500 μg/mL G418. To conduct the fluorescent imaging plate reader (FLIPR)-based calcium flux assay to measure intracellular Ca^2+ response, cells expressing GPR40 are plated on 384 well plates (BD Biocoat #356697) at a density of 20,000 cells/20 μL medium per well in phenol red and serum-free DMEM (Gibco #21063-029) and incubated overnight. Using BD kit #s 80500-310 or -301, the cells are incubated with 20 μL per well of Hank's buffered salt solution with 1.7 mM probenecid and Fluo-3 at 37° C. for 30 min. Compounds are dissolved in DMSO and diluted to desired concentrations with assay buffer and added to the cells as 3× solution (20 μL per well). Run fluorescence/luminescence reader FDSS (Hamamatsu) to read intracellular Ca^2+ response.

T1 sequence (O14842 whole entry): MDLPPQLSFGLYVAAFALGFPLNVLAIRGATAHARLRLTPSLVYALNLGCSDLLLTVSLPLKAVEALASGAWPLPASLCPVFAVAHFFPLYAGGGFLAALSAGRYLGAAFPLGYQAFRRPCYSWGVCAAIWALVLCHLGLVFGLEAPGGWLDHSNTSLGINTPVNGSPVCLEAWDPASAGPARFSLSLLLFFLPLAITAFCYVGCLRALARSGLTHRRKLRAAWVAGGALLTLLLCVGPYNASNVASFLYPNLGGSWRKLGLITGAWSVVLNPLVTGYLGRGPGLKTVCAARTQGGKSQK

| Compound | EC50 (hGPR40 [1]) [nM] | EC50 (hGPR40 [2]) [nM] |
| --- | --- | --- |
| COc1cc(N2CC[C@@H](Oc3cnc(N4C[C@H](OC)[C@@H](C)[C@@H]4CC(=O)O)cn3)[C@H](C)C2)c(Cl)cn1 [Example 1, 2-((2S,3S,4R)-1-(5-((3R,4R)-1-(5-Chloro-2-methoxypyridin-4-yl)-3-methylpiperidin-4-yloxy)pyrazin-2-yl)-4-methoxy-3-methylpyrrolidin-2-yl)acetic acid] | 14 | 72 |
| COCCCO[C@H]1CN(c2cnc(O[C@@H]3CCN(c4cc(OC)ncc4Cl)C[C@H]3C)cn2)[C@@H](CC(=O)O)[C@@H]1C [Example 2, 2-((2S,3S,4R)-1-(5-((3R,4R)-1-(5-Chloro-2-methoxypyridin-4-yl)-3-methylpiperidin-4-yloxy)pyrazin-2-yl)-4-(3-methoxypropoxy)-3-methylpyrrolidin-2-yl)acetic acid] | 4 | 43 |
| CCOc1ccc(F)c(N2CC[C@@H](Oc3cnc(N4C[C@H](OC)[C@@H](C)[C@@H]4CC(=O)O)cn3)[C@H](C)C2)c1 [Example 3, 2-((2S,3S,4R)-1-(5-((3R,4R)-1-(5-Ethoxy-2-fluorophenyl)-3-methylpiperidin-4-yloxy)pyrazin-2-yl)-4-methoxy-3-methylpyrrolidin-2-yl)acetic acid] | 21 | 42 |
| CCOc1ccc(F)c(N2CC[C@@H](Oc3cnc(N4C[C@H](OCCCOC)[C@@H](C)[C@@H]4CC(=O)O)cn3)[C@H](C)C2)c1 [Example 4, 2-((2S,3S,4R)-1-(5-((3R,4R)-1-(5-Ethoxy-2-fluorophenyl)-3-methylpiperidin-4-yloxy)pyrazin-2-yl)-4-(3-methoxypropoxy)-3-methylpyrrolidin-2-yl)acetic acid] | – | 45 |
| CCOc1ccc(F)c(N2CC[C@@H](Oc3cnc(N4CC(OCCCOC)C(C)C4CC(=O)O)cn3)[C@H](C)C2)c1 (stereo partly drawn) [Example 5, 2-(1-(5-(((3R,4R)-1-(5-Ethoxy-2-fluorophenyl)-3-methylpiperidin-4-yl)oxy)pyrazin-2-yl)-4-(3-methoxypropoxy)-3-methylpyrrolidin-2-yl)acetic acid] | – | 837 |
| COc1cc(N2CC[C@@H](Oc3cnc(N4C[C@H](OC)C[C@@H]4CC(=O)O)cn3)[C@H](C)C2)c(Cl)cn1 [Example 6, 2-((2R,4R)-1-(5-((3R,4R)-1-(5-Chloro-2-methoxypyridin-4-yl)-3-methylpiperidin-4-yloxy)pyrazin-2-yl)-4-methoxypyrrolidin-2-yl)acetic acid] | 44 | 150 |
| COc1cc(N2CC[C@@H](Oc3cnc(N4C[C@H](OC)C[C@H]4CC(=O)O)cn3)[C@H](C)C2)c(Cl)cn1 [Example 7, 2-((2S,4R)-1-(5-((3R,4R)-1-(5-Chloro-2-methoxypyridin-4-yl)-3-methylpiperidin-4-yloxy)pyrazin-2-yl)-4-methoxypyrrolidin-2-yl)acetic acid] | – | 3230 |
| COc1cc(N2CC[C@@H](Oc3cnc(N4C[C@H](C(F)(F)F)C[C@H]4CC(=O)O)cn3)[C@H](C)C2)c(Cl)cn1 [Example 8, 2-((2S,4R)-1-(5-((3R,4R)-1-(5-Chloro-2-methoxypyridin-4-yl)-3-methylpiperidin-4-yloxy)pyrazin-2-yl)-4-(trifluoromethyl)pyrrolidin-2-yl)acetic acid] | – | 955 |
| COc1cc(N2CC[C@@H](Oc3cnc(N4C[C@H](C(F)(F)F)C[C@@H]4CC(=O)O)cn3)[C@H](C)C2)c(Cl)cn1 [Example 9, 2-((2R,4R)-1-(5-((3R,4R)-1-(5-Chloro-2-methoxypyridin-4-yl)-3-methylpiperidin-4-yloxy)pyrazin-2-yl)-4-(trifluoromethyl)pyrrolidin-2-yl)acetic acid] | – | 84 |
